From patent publication US20130345392A1, “EDN3-LIKE PEPTIDES AND USES THEREOF” (Pfizer Inc, priority 2011, published 2013)
Where two headings read alike, the source gives them in different places. Where a SMILES comes first, the peptide text is derived from it. Bridges are numbered along the chain shown (N, C = ends). Where no end group is shown, it is not given here.

Columns and labels:
GLUTag cells = details: for GLP-1 secretion from GLUTag cells, result in words: endothelin-3 at highest concentration 10 μM
rat perfused colon = experiment: GLP-1 secretion from rat perfused colon ex vivo; details: forskolin (1 μM), rat perfused colon, vs baseline, p=0.0398
Method: Ex vivo rat colon vascular perfusion experiments were performed as previously described (Plaisancié, 1995). Male Sprague-Dawley rats (300 g) were purchased from Charles River and fed ad libitum with Purina Lab Chow #5001 (WF Fisher and Son Inc Sommerville, N.J.). Rats were decapitated and the abdomen was opened with a midline incision. […] The arterial vascular perfusion started immediately with an oxygenated Krebs-Henseleit buffer containing-solution at a rate of 2 mL/minute [solution: Krebs-Henseleit buffer (25.0 mM NaHCO3; 118 mM NaCl; 4.7 mM KCl; 1.2 mM MgSO4; 1.2 mM KH2PO4; 2.5 mM CaCl2) with 3% BSA, 5 mM glucose, MEM essential and nonessential amino acids (pH 7.4)]. The colonal lumen was perfused at the rate of 0.5 mL/minute. The remaining colon and small intestine were removed after the ligation of their respective supplying vessels. After the colon preparation was transferred to a 37° C. tissue bath, the portal effluent was collected as 5 minute fractions. The fraction aliquots were frozen at −20° C. for subsequent determinations of GLP-1. EDN3 97-140 was dissolved at 200 nM in vascular perfusion solution and perfused into the artery after a 30 minute baseline collection. […] The GLP-1 detection assay was carried out by using a commercial kit for active GLP-1 (7-36) amide according to the manufacturer's instructions (Millipore). GLP-1 release data was normalized to % baseline using the average of fractions collected prior to treatment as the baseline value and the peak data following each treatment. The average data across 3 independent experiments was reported comparing EDN3 97-140 versus control (baseline) and forskolin versus control (baseline). Statistical analysis was performed by one sided Satterwaite's test due to unequal variance and the Holm test was applied to account for multiple comparisons.

[1] = tested on: isolated rat aortic rings; details: read-out: EC50, concentration-dependent contractions, n=4-6
Method: The thoracic aorta with endothelium intact was isolated from male Wistar rats (300-500 g), cut into 3 mm rings, and placed in tissue baths with oxygenated Krebs-Henseleit buffer containing (in mM): KCl (4.7), CaCl2-2H2O (2.5), MgSO4-7H2O (1.2), KH2PO4 (1.2), D-glucose (10), NaHCO3 (25), NaCl (118). Tissues were placed under a 3 g basal tension and allowed to equilibrate for 1 hour at 37° C.

[2] = biological target: T1, human endothelin ETA receptor (human, UniProt P25101 21-427); experiment: radioligand competition ([125I]endothelin-1) on membranes of CHO cells transfected with human ETA
T1 construct: whole, on cells; Assayed as membrane homogenates (10 ug protein) of transfected CHO cells; also called endothelin receptor A
T1 sequence (looked up): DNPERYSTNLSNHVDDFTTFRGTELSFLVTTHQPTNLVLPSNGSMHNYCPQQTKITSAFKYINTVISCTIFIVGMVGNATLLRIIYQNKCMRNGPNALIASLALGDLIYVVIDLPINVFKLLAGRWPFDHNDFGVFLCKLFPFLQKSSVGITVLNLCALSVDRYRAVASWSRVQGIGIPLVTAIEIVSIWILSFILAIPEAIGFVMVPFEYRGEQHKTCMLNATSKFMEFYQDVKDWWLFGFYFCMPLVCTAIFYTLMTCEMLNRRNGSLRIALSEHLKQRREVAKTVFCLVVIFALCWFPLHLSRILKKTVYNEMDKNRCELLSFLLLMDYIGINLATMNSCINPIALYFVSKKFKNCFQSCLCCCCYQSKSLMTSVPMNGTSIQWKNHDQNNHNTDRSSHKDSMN
Method: (§1) To evaluate the affinity of EDN3 97-140 for the agonist site of the human endothelin ETA receptor, radioligand binding with CHO cells transfected with the ETA receptor was used. […] Following incubation, the samples are filtered rapidly under vacuum through glass fiber filters (GF/B, Packard) presoaked with 0.1% BSA and rinsed several times with an ice-cold buffer containing 50 mM Tris-HCl and 150 mM NaCl using a 96-sample cell harvester (Unifilter, Packard). Filters were dried and then counted for radioactivity in a scintillation counter (Topcount, Packard) using a scintillation cocktail (Microscint 0, Packard).

[3] = biological target: T2, human endothelin ETB receptor (human, UniProt P24530 27-442); experiment: radioligand competition ([125I]endothelin-1) on membranes of CHO cells transfected with human ETB
T2 construct: whole, on cells; Assayed as membrane homogenates (2.4 ug protein) of transfected CHO cells; also called endothelin receptor B
T2 sequence (looked up): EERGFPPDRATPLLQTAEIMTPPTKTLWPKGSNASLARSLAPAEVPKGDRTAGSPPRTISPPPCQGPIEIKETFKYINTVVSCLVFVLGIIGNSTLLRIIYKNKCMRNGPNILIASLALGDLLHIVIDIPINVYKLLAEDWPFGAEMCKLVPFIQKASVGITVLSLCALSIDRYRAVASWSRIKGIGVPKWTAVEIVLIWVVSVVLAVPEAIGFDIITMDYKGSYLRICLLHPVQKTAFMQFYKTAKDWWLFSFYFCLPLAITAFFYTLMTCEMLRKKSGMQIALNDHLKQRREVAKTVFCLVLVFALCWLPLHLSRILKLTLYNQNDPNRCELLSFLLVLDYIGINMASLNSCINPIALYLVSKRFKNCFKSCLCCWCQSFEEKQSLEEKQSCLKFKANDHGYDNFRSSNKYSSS
Method: as §1, with “ETB receptor in transfected CHO cells,” for “ETA receptor,”, “binding” for “binding with CHO cells transfected with the ETA receptor”, “were” for “are”, “The filters” for “Filters”, “dried” for “dried and”

For “STSFTYKDKESVYYSHLDIIWINTPEQTVPYGLSNYRESLRGKR-NH2 [EDN3 97-140 C->S mutant]”, the EC50 (GLUTag cells) was > 10 µM.

For “FTYKDKECVYYCHLDIIWINTPEQTVPYGLSNYRESLRGKR-NH2 (cysteines drawn unpaired) [EDN3 100-140]”, the EC50 (GLUTag cells) was > 10 µM and the “GLP-1 secretion from GLUTag cells, result in words” value (“GLP-1 secretion from GLUTag cells” below) (GLUTag cells) was “do not measurably stimulate GLP-1 secretion”.

For `C=C[C@@]1(C)CC(=O)[C@]2(O)[C@@]3(C)[C@@H](O)CCC(C)(C)[C@@H]3[C@H](O)[C@H](OC(C)=O)[C@@]2(C)O1` [forskolin, reference compound], the “stimulation of GLP-1 release, positive control” value (rat perfused colon) was 1717±350%.

FTYKDKESVYY-NH2 [EDN3 100-110] was tested, and the EC50 (GLUTag cells) was > 10 µM.

For “CTCFTYKDKECVYYCHLDIIFINTPEQTVPYGLSNYRESLRGKR-NH2 (disulfide 1-15, 3-11 (inferred)) [EDN3 97-140 W117F]”, the EC50 (GLUTag cells) was 0.731 µM and the “GLP-1 secretion from GLUTag cells” value (GLUTag cells) was “does not cause a loss of GLP-1 secretagogue function”.

“YYAHLDIIAINTPEQTVPYGLSNYRESLRGKR-NH2 [EDN3 109-140 C111A W117A]” was tested, and the EC50 (GLUTag cells) was > 10 µM.

For `CC[C@H](C)[C@H](NC(=O)[C@H](Cc1c[nH]c2ccccc12)NC(=O)[C@@H](NC(=O)[C@@H](NC(=O)[C@H](CC(=O)O)NC(=O)[C@H](CC(C)C)NC(=O)[C@H](Cc1c[nH]cn1)NC(=O)[C@H](CS)NC(=O)[C@H](Cc1ccc(O)cc1)NC(=O)[C@H](Cc1ccc(O)cc1)NC(=O)[C@@H](NC(=O)[C@H](CS)NC(=O)[C@H](CCC(=O)O)NC(=O)[C@H](CCCCN)NC(=O)[C@H](CC(=O)O)NC(=O)[C@H](CCCCN)NC(=O)[C@@H](N)Cc1ccc(O)cc1)C(C)C)[C@@H](C)CC)[C@@H](C)CC)C(=O)N[C@@H](CC(N)=O)C(=O)N[C@H](C(=O)N1CCC[C@H]1C(=O)N[C@@H](CCC(=O)O)C(=O)N[C@@H](CCC(N)=O)C(N)=O)[C@@H](C)O` [EDN3 102-123] (H-YKDKECVYYCHLDIIWINTPEQ-NH2; N-terminus assumed), the EC50 (GLUTag cells) was > 10 µM.

`CC[C@H](C)[C@H](NC(=O)[C@H](CC(=O)O)NC(=O)[C@H](CC(C)C)NC(=O)[C@H](Cc1c[nH]cn1)NC(=O)[C@@H]1CSSC[C@H](N)C(=O)N[C@@H]([C@@H](C)O)C(=O)N[C@H]2CSSC[C@H](NC(=O)[C@H](CCC(=O)O)NC(=O)[C@H](CCCCN)NC(=O)[C@H](CC(=O)O)NC(=O)[C@H](CCCCN)NC(=O)[C@H](Cc3ccc(O)cc3)NC(=O)[C@H]([C@@H](C)O)NC(=O)[C@H](Cc3ccccc3)NC2=O)C(=O)N[C@@H](C(C)C)C(=O)N[C@@H](Cc2ccc(O)cc2)C(=O)N[C@@H](Cc2ccc(O)cc2)C(=O)N1)C(=O)N[C@H](C(=O)N[C@@H](Cc1c[nH]c2ccccc12)C(=O)O)[C@@H](C)CC` [endothelin-3, reference compound] was tested, and the EC50 (GLUTag cells) was > 10 µM, the “GLP-1 secretion from GLUTag cells” value (GLUTag cells) was “no effect” and the “GLP-1 secretion from GLUTag cells” value (GLUTag cells; listed as Endothelin-3 (EDN3 97-117)) was “not sufficient to elicit a GLP-1 release”.

In the case of “INTPEQTVPYGLSNYRESLRGKR-NH2 [EDN3 118-140]”, the EC50 (GLUTag cells) is reported as > 10 µM.

With endothelin-1 [reference compound] the EC50 [1] was 0.0027 ± 0.001 µM.

In the case of “TCFTYKDKECVYYCHLDIIWINTPEQTVPYGLSNYRESLRGKR-NH2 (cysteines drawn unpaired) [EDN3 98-140]”, the EC50 (GLUTag cells) is reported as > 10 µM and the “GLP-1 secretion from GLUTag cells” value (GLUTag cells) is reported as “do not measurably stimulate GLP-1 secretion”.

“ATCFTYKDKECVYYAHLDIIWINTPEQTVPYGLSNYRESLRGKR-NH2 (disulfide 3-11) [EDN3 97-140 C97A, C111A]” showed an EC50 (GLUTag cells) of 2.7 µM.

In the case of “CTCFTYKDKECVYYCHLDIIHINTPEQTVPYGLSNYRESLRGKR-NH2 (disulfide 1-15, 3-11 (inferred)) [EDN3 97-140 W117H]”, the EC50 (GLUTag cells) is reported as > 1 µM.

In the case of “CTCFTYKDKECVYYCHLDIIWINTPEQTVPYGLSNYRESLR-NH2 (disulfide 1-15, 3-11 (inferred)) [EDN3 97-137]”, the EC50 (GLUTag cells) is reported as 1.72 µM and the “GLP-1 secretion from GLUTag cells” value (GLUTag cells) is reported as “partial loss of activity”.

“CTCFTYKDKECVYYCHLDIIWINTPEQTVPYGLSNYRESLRGKR-OH (disulfide 1-15, 3-11 (inferred)) [EDN3 97-140 free acid]” was tested, and the EC50 (GLUTag cells) was 2 µM.

For “YYSHLDIIWINTPEQTVPYGLSNYRESLRGKR-NH2 [EDN3 109-140 C111S]”, the EC50 (GLUTag cells) was > 10 µM.

Work on “CTAFTYKDKEAVYYCHLDIIWINTPEQTVPYGLSNYRESLRGKR-NH2 (disulfide 1-15) [EDN3 97-140 C99A, C107A]” yielded an EC50 (GLUTag cells) of 1.6 µM.

B1: EDN3 97-140 (peptide)
peptide: CTCFTYKDKECVYYCHLDIIWINTPEQTVPYGLSNYRESLRGKR-NH2
modifications: not fully specified; cysteine pairing not given here
notes: also called long endothelin-3; 44 amino acid, C-terminally amidated endothelin-like peptide
B1: no binding (tested: up to 3 µM) [2]; no binding (tested: up to 3 µM) [3].
